Measured values from patent US5202348A, “Thiarubrine antifungal agents” (The University of British Columbia, priority 1990, dated 1993).
Converted amounts (≈) assume the structure as drawn. Read-outs that look alike come from different tables or passages of the source.

Assays:
[1] = tested on: C. albicans; assay: Growth inhibition of C. albicans during 24 hours exposure; assay type: cell-based, Candida albicans; conditions: Candida albicans; 24 hours exposure; Table 3; read-out: Minimal concentration causing 100% growth inhibition
[2] = Growth inhibition of L1210 during 24 hours exposure; assay type: cell-based, Mouse; conditions: mouse, l1210 cells; Table 2; read-out: Toxicity Index, LC50 L1210 / C. albicans
Method: L1210 = Mouse lymphocytic leukemia
(§1) Doses inhibiting growth in 50% were estimated by plotting concentration o
(§2) a logarithmic scale and percent of growth inhibition for 24 hours exposur
(§3) on a probability scale.

[3] = tested on: C. albicans; assay: Doses of ThD required to inhibit different numbers of C. albicans cells; assay type: cell-based; conditions: Candida albicans, read-out: LC50 (the source's name)
[4] = tested on: C. albicans; assay: LC50 (24 hrs.), doses required to inhibit growth in 50%, different method; assay type: cell-based, Candida albicans
Source text: Doses Required to Inhibit Growth of C. albicans
in 50% During 24 hrs. (ng/ml)

[5] = tested on: C. albicans; assay: Influence of exposure of ThD for two hrs. to different pH (LC50 on C. albicans); assay type: cell-based; conditions: Candida albicans, two hrs. in sodium phosphate buffer
Source text: (§4) Data on degradation of Thiarubrine D (ThD) expressed as changes of concentration required to inhibit growth of C. albicans in 50% during 24 hrs. exposure (Lc50 24 hrs.).

[6] = tested on: P. aeruginosa; assay: Growth inhibition of P. aeruginosa during 24 hours exposure; assay type: cell-based, Pseudomonas aeruginosa; conditions: Pseudomonas aeruginosa; 24 hours exposure; Table 4; read-out: Minimal concentration causing 50% growth inhibition
Method: as §1, §2, §3

[7] = tested on: C. albicans; assay: Changes in LC50 on addition of fetal bovine serum to Saboraud dextrose medium; assay type: cell-based; conditions: Candida albicans
Source text: as §4

[8] = tested on: C. albicans; assay: Degradation of ThD under exposure to bench cool white light (LC50 on C. albicans); assay type: cell-based; conditions: Candida albicans
Source text: as §4

[9] = tested on: P815; assay: Growth inhibition of P815 mastocytoma during 24 hours exposure; assay type: cell-based, Mouse; conditions: Mus musculus, P815, 24 hours exposure
Method: (§5) P815 = Mouse mastocytoma […]
as §2, §3

[10] = as above; assay type: cell-based, Mouse; conditions: mouse, p815 cells
Method: as §5, §2, §3

[11] = tested on: E. coli; assay: Growth inhibition of E. coli during 24 hours exposure; assay type: cell-based, Escherichia coli; conditions: Escherichia coli; 24 hours exposure; Table 4; read-out: Minimal concentration causing 50% growth inhibition
Method: as §1, §2, §3

[12] = tested on: Candida albicans, Aspergillus fumigatus and Cryptococcus neoformans; assay: Antifungal activity (general statement); assay type: cell-based; conditions: extremely low concentrations
[13] = tested on: WEHI-3; assay: Growth inhibition of WEHI-3 during 24 hours exposure; assay type: cell-based, Mouse; conditions: Mus musculus, WEHI-3; 24 hours exposure; Table 1; read-out: Concentration causing 50% growth inhibition
Method: (§6) WEHl3 = Mouse myelomonocyte
as §1, §2, §3

[14] = as above; assay type: cell-based, Mouse; conditions: mouse, wehi-3 cells; Table 2; read-out: Toxicity Index, LC50 WEHI-3 / LC50 C. albicans
Method: as §6, §1, §2, §3

[15] = tested on: Aspergillus fumigatus; assay: Sensitivity of Aspergillus fumigatus, agar diffusion method; assay type: cell-based; conditions: disc diameter 6 mm, read-out: Zone of Growth Inhibition
Source text: Results were obtained by agar diffusion method. Disc diameter - 6 mm. -* = no zone over disc diameter.

[16] = tested on: P. aeruginosa; assay: Growth inhibition of P. aeruginosa during 24 hours exposure; assay type: cell-based, Pseudomonas aeruginosa; conditions: Pseudomonas aeruginosa, Table 3, read-out: Minimal concentration causing 100% growth inhibition

CC#CC1=CC=C(C#CC#CC2CO2)SS1 (stereo not drawn) [Thiarubrine D]
MIC [1]: 2.4 ng/mL (≈ 0.00982 µM) | selectivity ratio at 24 h [2]: 78 | IC50 ([3]; cell density 10^4 /ml): 0.007 µg/mL (≈ 0.0286 µM) | IC50 ([3]; cell density 10^5 /ml): 0.016 µg/mL (≈ 0.0655 µM) | IC50 ([3]; cell density 10^6 /ml): 0.042 µg/mL (≈ 0.172 µM) | Inhibition of growth of Candida albicans [4]: nanogram/ml range | IC50 ([4]; Candida albicans, 24 hrs., Table 7, read-out: LC50 (24 hrs.), dose required to inhibit growth in 50%): 7 ng/mL (≈ 0.0286 µM) | IC50 ([5]; pH 5): 0.04 µg/mL (≈ 0.164 µM) | IC50 ([5]; pH 6): 0.034 µg/mL (≈ 0.139 µM) | IC50 ([5]; pH 7): 0.02 µg/mL (≈ 0.0819 µM) | IC50 ([5]; pH 8): 0.052 µg/mL (≈ 0.213 µM) | IC50 [6]: 0.21 µg/mL (≈ 0.859 µM) | IC50 ([7]; SAB): 0.007 µg/mL (≈ 0.0286 µM) | IC50 ([7]; SAB + 5% FBS): 0.014 µg/mL | IC50 ([7]; SAB + 10% FBS): 0.016 µg/mL | IC50 ([8]; 0 mins. exposure to bench cool white light, read-out: LC50 (24 hrs.)): 0.007 µg/mL (≈ 0.0286 µM) | IC50 ([8]; 5 mins. exposure to bench cool white light, read-out: LC50 (24 hrs.)): 0.012 µg/mL (≈ 0.0491 µM) | IC50 ([8]; 15 mins. exposure to bench cool white light, read-out: LC50 (24 hrs.)): 0.026 µg/mL (≈ 0.106 µM) | IC50 ([8]; 0.5 hrs. exposure to bench cool white light, read-out: LC50 (24 hrs.)): 0.14 µg/mL (≈ 0.573 µM) | IC50 ([8]; 24 h, read-out: LC50 (24 hrs.), 24 hrs. exposure to bench cool white light): 5 µg/mL (≈ 20.5 µM) | IC50 ([8]; read-out: LC50 (24 hrs.), 6 hrs. exposure to bench cool white light): 5 µg/mL (≈ 20.5 µM) | IC50 ([9]; Table 1, read-out: Concentration causing 50% growth inhibition): 0.12 µg/mL (≈ 0.491 µM) | IC100 ([9]; Table 3, read-out: Minimal concentration causing 100% growth inhibition): 1.25 µg/mL | IC50 ([9]; Table 4, read-out: Minimal concentration causing 50% growth inhibition): 0.12 µg/mL (≈ 0.491 µM) | selectivity ratio at 24 h ([10]; 50% growth inhibition, Table 4, read-out: Ratio of concentration needed to inhibit growth in 50%, P815 vs C. albicans): 200 | selectivity ratio at 24 h ([10]; 100% growth inhibition, Table 3, read-out: Ratio of minimal concentration causing 100% growth inhibition, P815 line vs C. albicans): ~500 | selectivity ratio at 24 h ([10]; Table 2, read-out: Toxicity Index, LC50 P815 / LC50 C. albicans): 200 | IC50 [11]: 0.02 µg/mL (≈ 0.0819 µM) | Antifungal activity [12]: very high antifungal activity | IC50 [13]: 0.05 µg/mL (≈ 0.205 µM) | selectivity ratio at 24 h [14]: 83 | zone of inhibition at 0.01 µg/disc ([15]; 10 ng/disc): 14 mm | zone of inhibition at 0.1 µg/disc ([15]; 100 ng/disc): 23 mm | zone of inhibition at 1 µg/disc ([15]; 1,000 ng/disc): 26 mm | zone of inhibition at 10 µg/disc ([15]; 10,000 ng/disc): 32 mm | MIC [16]: 0.625 µg/mL (≈ 2.56 µM)
